According to publication PMC7760690, “Neuroprotective Metabolites from Vietnamese Marine Derived Fungi of Aspergillus and Penicillium Genera” (Marine Drugs, 2020):
Read-outs that look alike come from different tables or passages of the source.

Columns and labels:
MTT cytotoxicity assay = format: cell-based, murine; conditions: mouse, Neuro-2a neuroblastoma cells; Neuro-2a cells, MTT
Protocol: (§1) The murine neuroblastoma cell line Neuro-2a was purchased from ATCC.
(§2) Neuro-2a cells were cultured in DMEM medium containing 10% fetal bovine serum (Biolot, St. Petersburg, Russia) and 1% penicillin/streptomycin (Biolot, St. Petersburg, Russia). Cells were incubated at 37 °C in a humidified atmosphere containing 5% (v/v) CO2 [71].
(§3) The in vitro cytotoxicity of the individual substances was evaluated using an MTT (3-(4,5-dimethylthiazol-2-yl)-2,5-diphenyltetrazolium bromide) assay, which was performed according to the manufacturer’s instructions (Sigma-Aldrich, USA). Absorbance of the converted formazan was measured using a Multiskan FC plate photometer (Thermo Scientific, Waltham, MA, USA) at λ = 570 nm. The results were presented as percent of control data, and concentration of cell viability inhibition on 50% (IC50) was calculated.

[1] = system: neuroblastoma Neuro-2a cells; assay: MTT cytotoxicity assay; format: cell-based, murine; conditions: up to 100 µM
Protocol: as §1, §2, §3

[2] = DPPH radical scavenger assay; conditions: 30 min; for DPPH Radical Scavenging 100 µM % of MeOH: compound 100 µM, absorbance 520 nm
Protocol: The DPPH radical scavenging activities of the compounds were tested as described.
The compounds were dissolved in MeOH, and the solutions (120 µL) were dispensed into wells of a 96-well microplate. In all, 30 µL of the DPPH (Sigma-Aldrich, Steinheim, Germany) solution in MeOH (7.5 × 10^−3 M) was added to each well. The concentrations of the test compounds in the mixtures were 10 and 100 µM. The mixtures were shaken and left to stand for 30 min, and the absorbance of the resulting solutions was measured at 520 nm with a microplate reader MultiscanFC (ThermoScientific, Waltham, MA, USA). The concentration scavenging 50% of the DPPH radical (EC50) was calculated for each investigated compound.

[3] = system: Neuro-2a cells treated with 6-OHDA; assay: 6-OHDA-induced PD cell model, cell viability (MTT); format: cell-based, murine; conditions: compounds 1-5; 1 and/or 10 µM; 6-OHDA 50 µM; 24 h
Protocol: as §1, §2
(§4) The neuroblastoma Neuro-2a line cells (1 × 10^4 cells/well) were treated with the test compounds at concentrations of 1 and/or 10 µM for 1 h, and then the neurotoxins were added to the neuroblastoma cell suspensions. Rotenone (Sigma-Aldrich, USA) was used at the concentration of 10 µM. Paraquat (Sigma-Aldrich, USA) was used at 500 µM. 6-Hydroxydopamine (Sigma-Aldrich, USA) was used at 50 µM. Cells incubated without neurotoxins and the test compounds and cells incubated with neurotoxins only were used as positive and negative controls, respectively. After 24 h of incubation, the cell viabilities were measured using the MTT method. The results are presented as the percent of positive control data.

[4] = system: PQ-treated Neuro-2a cells; assay: Paraquat-induced PD cell model, cell viability (MTT); format: cell-based, murine; conditions: compounds 1-5; 1 and/or 10 µM; paraquat 500 µM; 24 h
Protocol: as §1, §2, §4

[5] = system: rotenone-treated Neuro-2a cells; assay: Rotenone-induced PD cell model, cell viability (MTT); format: cell-based, murine; conditions: compounds 1-5; 1 and/or 10 µM; rotenone 10 µM; 24 h
Protocol: as §1, §2, §4

[6] = system: 6-OHDA-treated Neuro-2a cells; assay: ROS level in 6-OHDA-treated cells (H2DCFDA); format: cell-based, murine; conditions: compounds 1-5; compound 10 µM 1 h, 6-OHDA 50 µM 1 h
Protocol: as §1, §2
(§5) The cells (1 × 10^4 cells/well of a 96-well plate) were incubated with compound solutions (10 µM) during 1 h. Then, 6-OHDA/PQ/rotenone were added to cell suspension to resulting concentration of 50 µM, 500 µM and 10 µM respectively for incubation during 1 h. Cells incubated without neurotoxins and compounds and with neurotoxins alone were used as positive and negative controls, respectively. The 20 µL of 2,7-dichlorodihydrofluorescein diacetate solution (H2DCFDA, Molecular Probes, Eugene, OR, USA) was added to each well (10 µM, final concentration) and the plate was incubated for an additional 10 min at 37 °C. The intensity of dichlorofluorescein fluorescence was measured with PHERAstar FS plate reader (BMG Labtech, Ortenberg, Germany) at λex = 485 nm and λem = 518 nm. The data were processed by MARS Data Analysis v. 3.01R2 (BMG Labtech, Germany). The results were presented as the percent of positive control data.

[7] = system: PQ-treated Neuro-2a cells; assay: ROS level in PQ-treated cells (H2DCFDA); format: cell-based, murine; conditions: compounds 1-5; compound 10 µM 1 h, PQ 500 µM 1 h
Protocol: as §1, §2
as §5, with “The cells (1 × 10^4 cells/well of a 96-well plate) were incubated with compound solutions (10 µM) during 1 h.” left out

[8] = system: rotenone-treated Neuro-2a cells; assay: ROS level in rotenone-treated cells (H2DCFDA); format: cell-based, murine; conditions: compounds 1-5; compound 10 µM 1 h, rotenone 10 µM 1 h
Protocol: as §1, §2, §5

HeLa = system: HeLa; design: method as in PMID 24871461; conditions: cited from earlier work
[9] = system: a number of other cell lines; design: method as in PMID 17994702, PMID 30658264; conditions: cited from earlier work
[10] = system: several microbial pathogens; design: method as in PMID 17994702, doi:10.1016/j.phytol.2015.04.009; conditions: cited from earlier work
[11] = cited from earlier work
[12] = system: methicillin-resistant Staphylococcus aureus (MRSA), S. aureus, Enterococcus faecalis and Acinetobacter baumannii, E. coli and Klebsiella pneumonia; design: method as in PMID 30946944; conditions: cited from earlier work
[13] = system: K562, BEL-7042, SGC-7901, A-549 and Hela cell lines; design: method as in PMID 30946944; conditions: cited from earlier work
[14] = system: murine lymphoma L5178Y cell line; design: method as in doi:10.1016/j.phytol.2015.06.003; conditions: cited from earlier work

Compound	IC50 (MTT cytotoxicity assay) [µM]	cytotoxicity against Neuro-2a cells [1]	EC50 ([2]; MeOH, read-out: DPPH Radical Scavenging EC50) [µM]	DPPH Radical Scavenging 100 µM % of MeOH [2]	effect on viability of Neuro-2a cells incubated with 6-OHDA [3]	effect on viability of PQ-treated cells [4]	effect on viability of rotenone-treated cells [5]	influence on ROS level in 6-OHDA-treated cells [6]	influence on ROS level in PQ-treated cells [7]	influence on ROS level in rotenone-treated cells [8]	cytotoxicity (HeLa)	cytotoxicity [9]	antimicrobial activity [10]	EC50 ([11]; reported earlier, read-out: DPPH Radical Scavenging EC50) [µM]	DPPH radical scavenging activity ([11]; via donation of a hydrogen atom and adduct forming)	antibacterial activities [12]	cytotoxic activities [13]	cytotoxicity [14]
C[C@H](O)CC1=C[C@H](O)[C@@H](C)OC1=O [Compound 5, Dihydroaspyrone]	> 100	not cytotoxic	> 100	95.2 ± 1.0 % of MeOH	did not demonstrate any protective effects	statistically increased viability of PQ-treated cells only	did not affect	reduced ROS level	significantly reduced the ROS level	significantly reduced the ROS level	weak cytotoxicity	did not show cytotoxicity	did not show					
Cc1cc(O)c(C)c(=O)o1 [Compound 4, 4-hydroxy-3,6-dimethyl-2-pyrone]	> 100	not cytotoxic		87.2 ± 1.4 % of MeOH	did not demonstrate any protective effects	had no effect on viability	did not affect		had almost no effect	significantly reduced the ROS level				500	shows DPPH radical scavenging activity	ineffective	ineffective	weak cytotoxicity
